Read-outs that look alike come from different tables or passages of the source.
Tests used:
Format in all cases: physicochemical
[1] = Fluidity detection: angle of repose by fixed cone bottom method; settings: average of three, <30° fluidity better, >40° poor
Excerpt: Measurement of angle of repose: a fixed cone bottom method was used, the funnel was fixed on a horizontal coordinate paper at a proper height, so that the distance from a lower opening of the funnel to the coordinate paper was H, the powder was carefully poured into the funnel until the tip of a cone formed below the funnel contacted an outlet of the funnel, the radius r of the cone can be measured by the coordinate paper, and measured three times continuously, and the average value was taken as the result. The angle of repose a was calculated as follows: […]
Judgment standard: when the angle of repose is <30°, the fluidity is better. When the angle of repose is >40°, the fluidity is poor.

[2] = Hygroscopicity analysis (weight gain, Chinese Pharmacopoeia 2020 guideline 9103); settings: 25° C.±1° C., 24 hours; for Weight Gain: constant humidity
Protocol: 1) a dry glass weighing bottle with a plug (with an outer diameter of 50 mm and a height of 15 mm) was taken and placed in a proper constant-temperature dryer (the lower part was placed with ammonium chloride or ammonium sulfate saturated solution) at 25° C.±1° C. one day before the test; and the weight of the weighing bottle was precisely measured (m 1).
2) a proper amount of the test sample was taken, tiled in the weighing bottle, wherein the thickness of the test sample was about 1 mm, and the weight of the test sample was precisely measured (m 2). 3) the weighing bottle was opened, and placed with its bottle cap under the constant temperature and humidity conditions for 24 hours.
4) the bottle cap was covered well and the weight of […] was precisely measured (m 3).
According to 9103 guideline principle on drug hygroscopicity test in four part of Chinese Pharmacopoeia 2020 edition, the description of hygroscopicity characteristics and the definition of hygroscopicity weight gain are as follows:
Deliquescence: enough water is absorb to form liquid.
Extremely hygroscopic: the weight gain due to hygroscopicity is not less than 15%.
Hygroscopic: the weight gain due to hygroscopicity is less than 15% but not less than 2%.
Slightly hygroscopic: the weight gain due to hygroscopicity is less than 2% but not less than 0.2%.
No or almost no hygroscopicity: the weight gain due to hygroscopicity is less than 0.2%.

[3] = Solubility analysis in water and media of different pH, HPLC; settings: for solubility thermodynamic: thermodynamic from solid, read-out: Concentration
Protocol: The excessive test sample was put into a dissolution instrument cup, added with water and an appropriate amount of water-soluble medium with different pH values (pH=1.2, 2.2, 4.0, 4.5, 5.5, 6.8), stirred at 37° C.±1° C. (rotation speed: 100 r/min) for dissolution (more than 6 hours) to form a […] solution, the saturated solution was filtered, the filtrate was diluted with a mobile phase by corresponding times, the concentration was measured by HPLC method, and the solubility was calculated.

[4] = Oil-water distribution coefficient log P (n-octanol-water) by HPLC retention time; settings: HPLC retention time against standards of known log P
Excerpt: The standard substance having known log P (n-octanol-water) was used, the log P (n-octanol-water) of the substance to be tested was detected by HPLC. The principle is based on the fact that the retention time of chemical substances in a long hydrocarbon chain chromatographic column such as C18 column is related to their hydrocarbon-water distribution coefficient. Hydrophilic substances are eluted first, lipophilic substances are eluted later, and the oil-water distribution coefficient and the retention time are in a linear relationship, and the equation is as follows: [formula] [formula] log P: oil-water partition coefficient of samples (n-octanol-water); T0: dead time (measured by uracil here); Tn: retention time of samples by HPLC; according to the above formula, a linear relationship formula can be established by detecting the retention time of the standard substance and the known log P (n-octanol-water). The theoretical value of log P is used as the ordinate, the log K value is used as the abscissa for drawing, the values of a and b are obtained through calculation, and then the retention time (namely the log K value in the table) of samples to be detected is substituted into the equation to calculate the log P (n-octanol-water) value of samples.

[5] = Water for injection, 37° C.±1° C.

| Structure (SMILES) | Angle of Repose [1] | Hygroscopicity [2] | Weight Gain [2] | Concentration [3, 5] | Equilibrium Solubility [3, 5] | Concentration ([3]; pH = 1.2, 37° C.±1° C.) | Equilibrium Solubility ([3]; pH = 1.2, 37° C.±1° C.) | Concentration ([3]; pH = 2.2, 37° C.±1° C.) | Equilibrium Solubility ([3]; pH = 2.2, 37° C.±1° C.) | Concentration ([3]; pH = 4.0, 37° C.±1° C.) | Equilibrium Solubility ([3]; pH = 4.0, 37° C.±1° C.) | Concentration ([3]; pH = 4.5, 37° C.±1° C.) | Equilibrium Solubility ([3]; pH = 4.5, 37° C.±1° C.) | Concentration ([3]; pH = 5.5, 37° C.±1° C.) | Equilibrium Solubility ([3]; pH = 5.5, 37° C.±1° C.) | Equilibrium Solubility ([3]; pH = 6.8, 37° C.±1° C.) | log P (n-octanol-water) [4] | also measured |
| --- | --- | --- | --- | --- | --- | --- | --- | --- | --- | --- | --- | --- | --- | --- | --- | --- | --- | --- |
| Cc1cncc(CN2CCC(=C3c4ccccc4CC(=O)c4sccc43)CC2)c1.O=C(O)/C=C/C(=O)O [Crystalline form A, 4-[1-[(5-methylpyridin-3-yl)methyl]piperidyl-4-ylidene]-4,9-dihydro-10H-benzo[4,5]cycloheptyl[1,2-b]thiophen-10-one fumarate] | 47° | Slightly hygroscopic (the weight gain due to hygroscopicity is less than 2% but not less than 0.2%) | 0.3% | 1790 µg/mL | 448.75 mg/250 ml | 26680 µg/mL | 6669.86 mg/250 ml | 3000 µg/mL | 751.00 mg/250 ml | 2290 µg/mL | 571.88 mg/250 ml | 2990 µg/mL | 747.72 mg/250 ml | 340 µg/mL | 84.93 mg/250 ml | 3.39 mg/250 ml | 2.8 |  |
| Cc1cncc(CN2CCC(=C3c4ccccc4CC(=O)c4sccc43)CC2)c1.O=C(O)/C=C/C(=O)O [Crystalline form B, 4-[1-[(5-methylpyridin-3-yl)methyl]piperidyl-4-ylidene]-4,9-dihydro-10H-benzo[4,5]cycloheptyl[1,2-b]thiophen-10-one fumarate] | 50° | Slightly hygroscopic (the weight gain due to hygroscopicity is less than 2% but not less than 0.2%) | 0.2% | 1220 µg/mL | 305.45 mg/250 ml | 29420 µg/mL | 7355.56 mg/250 ml | 2640 µg/mL | 659.74 mg/250 ml | 1410 µg/mL | 352.76 mg/250 ml | 1360 µg/mL | 339.48 mg/250 ml |  | 44.97 mg/250 ml | 2.56 mg/250 ml |  | solubility thermodynamic ([3]; water-soluble medium of pH 5.5, 37 °C, pH 5.5, aqueous buffer, pH = 5.5, 37° C.±1° C.): 180 µg/mL; solubility thermodynamic ([3]; water-soluble medium of pH 6.8, 37 °C, pH 6.8, aqueous buffer, pH = 6.8, 37° C.±1° C.): 10 µg/mL; chromatographic logP [4]: 2.9 |
| Cc1cncc(CN2CCC(=C3c4ccccc4CC(=O)c4sccc43)CC2)c1.O=C(O)/C=C/C(=O)O [Crystalline form C, 4-[1-[(5-methylpyridin-3-yl)methyl]piperidyl-4-ylidene]-4,9-dihydro-10H-benzo[4,5]cycloheptyl[1,2-b]thiophen-10-one fumarate] | 28° | No or almost no hygroscopicity (the weight gain due to hygroscopicity is less than 0.2%) | 0.06% | 2460 µg/mL | 616.34 mg/250 ml |  | 4908.73 mg/250 ml |  | 1013.35 mg/250 ml | 2840 µg/mL | 710.90 mg/250 ml | 3770 µg/mL | 942.80 mg/250 ml | 310 µg/mL | 77.90 mg/250 ml | 4.40 mg/250 ml | 3.2 | Angle of Repose ([1]; listed as crystalline form C): less than 30 °; solubility according to the classification system of biopharmaceuticals ([3]; medium with pH=6.8): slightly superior to that of other crystal forms; Concentration ([3]; pH = 6.8, 37° C.±1° C.): 18 µg/mL; solubility thermodynamic ([3]; water-soluble medium of pH 1.2, 37 °C, pH 1.2, simulated gastric fluid, pH = 1.2, 37° C.±1° C.): 19600 µg/mL; solubility thermodynamic ([3]; water-soluble medium of pH 2.2, 37 °C, pH 2.2, aqueous buffer, pH = 2.2, 37° C.±1° C.): 4050 µg/mL |
| Cc1cncc(CN2CCC(=C3c4ccccc4CC(=O)c4sccc43)CC2)c1.O=C(O)/C=C/C(=O)O [Mixed crystal, 4-[1-[(5-methylpyridin-3-yl)methyl]piperidyl-4-ylidene]-4,9-dihydro-10H-benzo[4,5]cycloheptyl[1,2-b]thiophen-10-one fumarate] | 49° | Slightly hygroscopic (the weight gain due to hygroscopicity is less than 2% but not less than 0.2%) | 0.4% | 1980 µg/mL | 495.71 mg/250 ml | 24470 µg/mL | 6117.84 mg/250 ml | 3400 µg/mL | 849.73 mg/250 ml | 2530 µg/mL | 633.71 mg/250 ml | 3430 µg/mL | 856.32 mg/250 ml |  | 76.85 mg/250 ml | 3.61 mg/250 ml | 2.7 |  |
